From patent publication US6291467A, “Heteroaromatic derivatives” (priority 2000, dated 2001)
Where a name gives a salt, the structure may show the parent alone.

What was measured:
Dopamine D2 Receptor = Dopamine D2 Receptor (Rattus norvegicus, UniProt P61169); assay: Dopamine D2 Receptor Binding Assay (displacement of [^3 H]raclopride); conditions: rat striatum membrane, [^3 H]raclopride (1 nM), 25° C., an hour
Method: 2. Dopamine D2 Receptor Binding Assay
Rat striatum membrane was used as a receptor preparation.
[^3 H]raclopride was used as [^3 H]-labeled ligand.
A binding reaction using the [^3 H]-labeled ligand was carried out according to the following method as described in Mol. J. Pharmacol., 43, 749(1993).
Preparation of Receptor Preparation: Rat striatum was homogenized in 50 mM Tris-hydrochloric acid buffer (pH 7.4), centrifuged at 48,000×g, and the precipitate was washed once with a Tris-hydrochloric acid buffer. The precipitate was suspended in 50 mM Tris-hydrochloric acid buffer (pH 7.4) containing 120 mM NaCl, 1.5 mM KCl, 2 mM CaCl2 and 1 mM MgCl2 to give a membrane preparation.
Dopamine D2 Receptor Binding Assay: The membrane preparation (0.5 mg of protein/ml), [^3 H]raclopride (1 nM) and each test drug were reacted at 25° C. for an hour.
After completion of the reaction, the reaction solution was filtered by suction through a glass filter (GF/B), and the radioactivity on the filter was determined by a liquid scintillation spectrometer.
The binding under the reaction in the presence of 10 μM haloperidol was defined as non-specific binding of [^3 H]raclopride, and the difference between total binding and non-specific binding was defined as specific binding.

human D4.2 receptor = biological target: T1, human D4.2 receptor (Homo sapiens, UniProt P21917, DEL265-296); assay: Dopamine D4 Receptor Binding Assay (displacement of [^3 H]spiperone); conditions: human D4.2 in CHO cell membranes, pH 7.4, 27° C., 2 hours
T1 sequence (P21917 with tags, fused parts or gaps DEL265-296): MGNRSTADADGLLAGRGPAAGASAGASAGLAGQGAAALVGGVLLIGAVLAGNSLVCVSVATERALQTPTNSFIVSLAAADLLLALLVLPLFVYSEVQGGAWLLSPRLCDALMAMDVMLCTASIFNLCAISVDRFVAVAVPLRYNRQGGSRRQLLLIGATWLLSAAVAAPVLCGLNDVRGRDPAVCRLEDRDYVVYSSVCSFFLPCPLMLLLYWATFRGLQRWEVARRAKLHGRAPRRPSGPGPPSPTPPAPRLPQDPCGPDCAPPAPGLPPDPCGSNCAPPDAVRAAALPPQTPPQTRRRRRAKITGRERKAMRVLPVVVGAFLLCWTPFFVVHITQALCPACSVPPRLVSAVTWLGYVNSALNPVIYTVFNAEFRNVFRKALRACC
Method: 1. Dopamine D4 Receptor Binding Assay
Chinese hamster ovarium (CHO) cell membranes wherein human D4.2 receptor was expressed were used as a receptor preparation.
[^3 H]spiperone was used as [^3 H]-labeled ligand.
A binding reaction using the [^3 H]-labeled ligand was carried out according to the following method as described in Eur. J. Pharmacol., 233, 173(1993).
Dopamine D4.2 Receptor Binding Assay: The CHO cell membranes wherein human D4.2 receptor was expressed, [^3 H]spiperone ([…]) and each test drug were reacted in 50 mM Tris-hydrochloric acid buffer (pH 7.4) containing 5 mM EDTA, 1.5 mM CaCl2, 5 mM KCl and 120 mM NaCl at 27° C. for 2 hours.
After completion of the reaction, the reaction solution was filtered by suction through a glass filter (GF/B), and the radioactivity on the filter was measured by a liquid scintillation spectrometer.
The binding under the reaction in the presence of 10 μM haloperidol was defined as non-specific binding of [^3 H]spiperone, and the difference between the total binding and the non-specific binding was defined as specific binding.

[1] = Summary and Clinical Data, Sandoz, Canada Inc. (1990); cited from earlier work
[2] = test system: drug-resistant schizophrenia and negativism; conditions: clinical investigation, Arch. Gen. Psych., 45, 789-796 (1988); cited from earlier work
dopamine D4 receptors = conditions: Nature, 350, 610-614 (1991); cited from earlier work

Dopamine D2 Receptor, sequence (P61169 whole entry): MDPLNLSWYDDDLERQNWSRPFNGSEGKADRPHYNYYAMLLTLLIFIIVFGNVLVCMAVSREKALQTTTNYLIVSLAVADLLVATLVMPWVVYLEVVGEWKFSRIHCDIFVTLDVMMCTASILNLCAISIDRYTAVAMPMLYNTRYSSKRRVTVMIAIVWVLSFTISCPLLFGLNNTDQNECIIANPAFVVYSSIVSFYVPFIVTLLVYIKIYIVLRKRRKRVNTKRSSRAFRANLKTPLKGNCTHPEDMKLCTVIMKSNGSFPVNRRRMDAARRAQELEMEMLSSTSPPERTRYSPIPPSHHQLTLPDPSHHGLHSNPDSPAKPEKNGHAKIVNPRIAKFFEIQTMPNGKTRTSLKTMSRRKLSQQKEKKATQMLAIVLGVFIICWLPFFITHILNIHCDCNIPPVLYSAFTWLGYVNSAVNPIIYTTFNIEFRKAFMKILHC

SMILES	IC50 (Dopamine D2 Receptor) [nM]	IC50 (human D4.2 receptor) [nM]	also measured
Fc1ccc(-c2[nH]ncc2CCN2CCC(=Cc3cccc(F)c3)CC2)cc1 [Compound A-02]	32	1.12	–
Fc1ccc(-c2nc(S)ncc2CCN2CCC(=Cc3ccccc3F)CC2)cc1 [Compound A-13, 4-(4-fluorophenyl)-5-[2-[4-(2-fluorobenzylidene)piperidin-1-yl]ethyl]-2-mercaptopyrimidine]	> 1000	1.35	–
CN1CCN(C2=Nc3cc(Cl)ccc3Nc3ccccc32)CC1 [clozapine]	–	–	blood disorder (agranulocytosis) [1]: serious defect of causing blood disorder called agranulocytosis; death from agranulocytosis [1]: cases of death therefrom have been reported; effect on drug-resistant schizophrenia and negativism [2]: effective on drug-resistant schizophrenia and negativism; extrapyramidal diseases [2]: hardly causes extrapyramidal diseases; affinity for dopamine D4 receptors relative to dopamine D2 receptors (dopamine D4 receptors): higher than that for dopamine D2 receptors
Cc1ccc(-c2[nH]ncc2CCN2CCC(=Cc3ccc(F)cc3)CC2)cc1 [Compound A-04]	55.9	1.96	–
Fc1ccc(-c2[nH]ncc2CCN2CCC(=Cc3ccccc3F)CC2)cc1 [Compound A-03, 5-(4-fluorophenyl)-4-[2-[4-(2-fluorobenzylidene)piperidin-1-yl]ethyl]pyrazole oxalate]	26.6	0.85	–
O=C(c1ccc(F)cc1)C1CCN(CCc2sc(O)nc2-c2ccc(F)cc2)CC1 [Compound A-09]	107	2.85	–
Fc1ccc(-c2ncncc2CCN2CCC(=Cc3ccccc3F)CC2)cc1 [Compound A-12, 4-(4-fluorophenyl)-5-[2-[4-(2-fluorobenzylidene)piperidin-1-yl]ethyl]pyrimidine dihydrochloride]	359	2.15	–
Cc1ccc(C=C2CCN(CCc3cn[nH]c3-c3ccc(F)cc3)CC2)cc1 [Compound A-06]	171	2.85	–
CSc1nc(-c2ccc(F)cc2)c(CCN2CCC(=Cc3cccc(F)c3)CC2)[nH]1 [Compound A-08]	61.4	1.12	–
Nc1ncc(CCN2CCC(=Cc3ccccc3F)CC2)c(-c2ccc(F)cc2)n1 [Compound A-16]	129	1.96	–
Fc1ccc(C=C2CCN(CCc3cn[nH]c3-c3ccc(F)cc3)CC2)cc1 [Compound A-01]	152	1.23	–
Oc1nc(-c2ccc(F)cc2)c(CCN2CCC(=Cc3cccc(F)c3)CC2)s1 [Compound A-10, 2-hydroxy-4-(4-fluorophenyl)-5-[2-[4-(3-fluorobenzylidene)piperidin-1-yl]ethyl]thiazole]	73.9	1.96	–
